From PMC10013850 (Proceedings of the National Academy of Sciences of the …, 2023)

T1: hMfsd2a (Homo sapiens, UniProt Q8NA29)
T1 sequence (Q8NA29 1-530 isoform Q8NA29-2): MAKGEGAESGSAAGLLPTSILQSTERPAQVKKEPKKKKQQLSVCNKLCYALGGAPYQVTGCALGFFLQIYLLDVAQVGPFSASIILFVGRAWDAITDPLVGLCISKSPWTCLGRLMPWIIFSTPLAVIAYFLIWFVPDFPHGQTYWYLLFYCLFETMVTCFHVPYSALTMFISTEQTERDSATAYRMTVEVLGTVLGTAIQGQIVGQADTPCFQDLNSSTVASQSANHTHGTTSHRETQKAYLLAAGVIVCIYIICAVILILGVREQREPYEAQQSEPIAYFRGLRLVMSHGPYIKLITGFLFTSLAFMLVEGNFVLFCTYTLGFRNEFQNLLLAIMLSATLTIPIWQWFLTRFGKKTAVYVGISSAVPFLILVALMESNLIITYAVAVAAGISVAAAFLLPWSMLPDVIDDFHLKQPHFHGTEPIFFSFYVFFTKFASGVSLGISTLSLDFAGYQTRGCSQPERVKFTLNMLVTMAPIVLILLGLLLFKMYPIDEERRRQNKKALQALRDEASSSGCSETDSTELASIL


Legend:
hMfsd2a = biological target: T1, hMfsd2a; assay: single-cell flow cytometry uptake assay in transfected HEK293 cells; settings: read-out: apparent Km; 37 °C, 30 min, serum-free DMEM; labelled compound
[1] = substrate: C[N+](C)(C)CCOP(=O)([O-])OC[C@H](O)COC(=O)CCCCCCCCCCCNc1ccc([N+](=O)[O-])c2nonc12; assay: cells, lysate or membranes; settings: 37 °C, 30 min, serum-free DMEM, labelled compound

Km (hMfsd2a) [µM]	Molecule	Km [1] [µM]
3	LPC-16:1-NBD	
	hMfsd2a (Homo sapiens) (protein) MAKGEGAESGSAAGLLPTSILQSTERPAQVKKEPKKKKQQLSVCNKLCYALGGAPYQVTGCALGFFLQIYLLDVAQVGPFSASIILFVGRAWDAITDPLVGLCISKSPWTCLGRLMPWIIFSTPLAVIAYFLIWFVPDFPHGQTYWYLLFYCLFETMVTCFHVPYSALTMFISTEQTERDSATAYRMTVEVLGTVLGTAIQGQIVGQADTPCFQDLNSSTVASQSANHTHGTTSHRETQKAYLLAAGVIVCIYIICAVILILGVREQREPYEAQQSEPIAYFRGLRLVMSHGPYIKLITGFLFTSLAFMLVEGNFVLFCTYTLGFRNEFQNLLLAIMLSATLTIPIWQWFLTRFGKKTAVYVGISSAVPFLILVALMESNLIITYAVAVAAGISVAAAFLLPWSMLPDVIDDFHLKQPHFHGTEPIFFSFYVFFTKFASGVSLGISTLSLDFAGYQTRGCSQPERVKFTLNMLVTMAPIVLILLGLLLFKMYPIDEERRRQNKKALQALRDEASSSGCSETDSTELASIL	244
